The supplement of paper PMC5579334

Columns and labels:
HS-PSS [1] = assay: relative IC50 (inflection point of fitted dose-response curve, CellTox-Green cytotoxicity, 72 h; top asymptote may be below 50%); higher = less potent
In short: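 For 72 h at 37 °C, MPNST cell lines and primary human Schwann cells were exposed in 384-well plates to five 10-fold compound dilutions. CellTox-Green, added before seeding at a final 1:1000 dilution, gave fluorescence from DNA released by disrupted cells. Signals were scaled to vehicle and positive-control wells, cultures failing plate quality control were left out, and four-parameter logistic fits were applied. Relative IC50 and drug sensitivity score were derived from the fits, with IC50 censored at the top concentration.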

HS-Sch-2 = assay: relative IC50 (inflection point of fitted dose-response curve, CellTiter-Glo viability, 72 h; top asymptote may be below 50% inhibition); higher = less potent
In short: (§1)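 After seeding 750–1000 cells per well of MPNST cell lines or primary human Schwann cells into 384-well plates preprinted with each compound at five concentrations in 10-fold steps, plates were kept 72 h at 37 °C, 5% CO2. Viability was read as CellTiter-Glo ATP luminescence relative to vehicle and positive-control wells, with duplicates averaged where present. The data were fitted with four-parameter logistic models. Drug sensitivity score and relative IC50, censored at the top concentration, derive from the fits, and percent inhibition refers to the top concentration.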

YST-1 = assay: as above
In short: as §1

HS-PSS [2] = assay: as above
In short: as §1

SMILES | relative IC50 (HS-PSS [1]) [nM] | relative IC50 (HS-Sch-2) [nM] | relative IC50 (YST-1) [nM] | relative IC50 (HS-PSS [2]) [nM]
OCCn1cc(-c2cnc3nnn(Cc4ccc5ncccc5c4)c3n2)cn1 | > 2500 | > 2500 | – | –
COC(=O)N[C@@H](C)CNc1nccc(-c2cn(C(C)C)nc2-c2cc(Cl)cc(NS(C)(=O)=O)c2F)n1 [Encorafenib] | > 1000 | – | > 1000 | –
CNC(=O)c1cccc2cc(Oc3ccnc4cc(OCC5(N)CC5)c(OC)cc34)ccc12 [Lucitanib] | > 10000 | 3710 | 1420 | –
O=C(c1ccc(/C=C/c2n[nH]c3ccccc23)cc1)N1CCNCC1 [KW-2449] | > 2500 | > 2500 | 509 | –
CS(=O)(=O)c1ccc(-c2cnc(N)c(C(=O)Nc3ccccc3)n2)cc1 [VE-821] | > 10000 | > 10000 | > 10000 | –
CCc1nc(-c2cccc(C)c2)c(-c2ccnc(NC(=O)c3ccccc3)c2)s1 [TAK-715] | > 10000 | 1210 | – | –
Cn1ncc(Cl)c1-c1cc(C(=O)N[C@H](CN)Cc2cccc(F)c2)sc1Cl [Afuresertib] | > 1000 | > 1000 | 327 | –
NC1(C(=O)N[C@@H](CCO)c2ccc(Cl)cc2)CCN(c2ncnc3[nH]ccc23)CC1 [AZD-5363] | > 10000 | 3470 | 2090 | –
CCOc1ccn(-c2ccc(F)cc2)c(=O)c1C(=O)Nc1ccc(Oc2ccnc(N)c2Cl)c(F)c1 | > 2500 | > 2500 | > 2500 | –
O=C(Nc1ccc(-c2ccnc(Nc3ccc(N4CCOCC4)cc3)n2)cc1)[C@H]1CCCN1 [XL019] | > 10000 | – | – | 2850
Cc1[nH]c(/C=C2\C(=O)Nc3ccccc32)c(C)c1CCC(=O)O [Orantinib] | 205 | > 10000 | – | –
COCC1(CO)C(=O)C2CCN1CC2 (stereo not given) [APR-246] | > 10000 | > 10000 | > 10000 | –
O=C(Nc1nc2cccc(-c3ccc(CN4CCS(=O)(=O)CC4)cc3)n2n1)C1CC1 [Filgotinib] | > 10000 | 2680 | 3690 | –
C[C@H](Nc1ncnc2nc[nH]c12)c1cc2cccc(Cl)c2c(=O)n1-c1ccccc1 [Duvelisib] | – | – | – | > 500
CNC(=O)CN1CCC(Oc2cc3c(Nc4cccc(Cl)c4F)ncnc3cc2OC)CC1 [Sapitinib] | > 1000 | – | – | > 1000
COc1cccc2c1c(O)c(C(=O)N(C)c1ccc(C(F)(F)F)cc1)c(=O)n2C [Tasquinimod] | > 10000 | > 10000 | – | –
Cc1ccccc1C(C(=O)NC1CCCCC1)N(C(=O)Cn1ccnc1C)c1cccc(F)c1 (stereo not given) [AGI-5198] | > 10000 | – | > 10000 | –
Nc1nc(Nc2ccc3c(c2)CC[C@@H](N2CCCC2)CC3)nn1-c1cc2c(nn1)-c1ccccc1CCC2 [BGB324] | > 10000 | 570 | 2140 | –
CN(C)C(=N)NC(=N)N [Metformin] | > 100000 | > 100000 | > 100000 | –
c1cc(CN2CCCNCCNCCCNCC2)ccc1CN1CCCNCCNCCCNCC1 [Plerixafor] | > 10000 | > 10000 | > 10000 | –
Clc1ccccc1C(c1ccccc1)(c1ccccc1)n1cccn1 [TRAM-34] | > 1000 | – | > 1000 | –
Cc1csc(-c2nnc(Nc3ccc(Oc4ncccc4-c4ccnc(N)n4)cc3)c3ccccc23)c1 [AMG-900] | > 1000 | 326 | 11 | –
Cn1ncnc1[C@H]1c2n[nH]c(=O)c3cc(F)cc(c23)N[C@@H]1c1ccc(F)cc1 [Talazoparib] | > 1000 | 105 | 9.15 | –
Cc1nc(NC(=O)N2CCC[C@H]2C(N)=O)sc1-c1ccnc(C(C)(C)C(F)(F)F)c1 [Alpelisib] | > 2500 | – | 217 | –
CC1CCC(n2c3cnccc3c3cnc(Nc4ccc5c(n4)CCN(C(=O)CO)C5)nc32)CC1 (stereo not given) [AMG-925] | > 1000 | – | – | > 1000
CCN1CCN(Cc2ccc(-c3cc4c(N[C@H](C)c5ccccc5)ncnc4[nH]3)cc2)CC1 [NVP-AEE788] | > 2500 | > 2500 | – | –
NS(=O)(=O)NCCNc1nonc1/C(=N/O)Nc1ccc(F)c(Br)c1 [Epacadostat] | > 10000 | – | – | > 10000
Cc1cccc(CC(=O)N2CCc3c2ccc(-c2cn(C)c4ncnc(N)c24)c3F)n1 | – | – | – | 993

SMILES | relative IC50 (HS-PSS [1]) [nM] | relative IC50 (HS-Sch-2) [nM] | relative IC50 (YST-1) [nM] | relative IC50 (HS-PSS [2]) [nM]
O=C(NOC[C@H](O)CO)c1ccc(F)c(F)c1Nc1ccc(I)cc1F | > 1000 | – | > 1000 | –
COC(=O)c1ccc2c(c1)[nH]c1ncnc(NCCCN3CCCCC3)c12 [UM729] | > 10000 | 3140 | 560 | –
O=C(Nc1cccc(Cl)c1)Nc1ncc(CCNc2ncnc3ccsc23)s1 [SNS-314] | > 1000 | 185 | 8.84 | –
CCCNC(=O)Nc1ccc(Oc2ncnc3cc(OC)c(OC)cc23)cc1Cl [KRN-633] | > 2500 | > 2500 | > 2500 | –
CC[C@H](C)C(=O)O[C@H]1C[C@H](O)C=C2C=C[C@H](C)[C@H](CC[C@@H](O)C[C@@H](O)CC(=O)O)[C@H]21 [Pravastatin] | > 10000 | > 10000 | > 10000 | –
Cc1nc(=O)c2cc(CN(C)c3ccc(C(=O)N[C@@H](CCC(=O)O)C(=O)O)s3)ccc2[nH]1 [Raltitrexed] | > 1000 | 22.7 | 11.2 | –
O=C(c1cccc(Cl)c1F)N1CCN(Cc2cccc(Nc3nccs3)n2)CC1 [MK-8745] | > 2500 | 623 | 231 | –
C[C@@H]1CN(Cc2ccc(F)cc2)[C@@H](C)CN1C(=O)c1cc2c(C(=O)C(=O)N(C)C)cn(C)c2cc1Cl [Talmapimod] | > 10000 | > 10000 | 283 | –
NC(=O)c1cccc(-c2cccc(OC(=O)NC3CCCCC3)c2)c1 [URB597] | > 1000 | > 1000 | > 1000 | –
O=C(Nc1cc(Cl)cc2c1[nH]c1cnccc12)c1cccnc1 [PS-1145] | > 25000 | > 25000 | – | –
COc1ccc(Cl)c(Nc2nc3ccccc3nc2NS(=O)(=O)c2cccc(NC(=O)C(C)(C)N)c2)c1 [Pilaralisib] | > 2500 | – | 674 | –
CCN(c1cc(-c2ccc(CN3CCOCC3)cc2)cc(C(=O)NCc2c(C)cc(C)[nH]c2=O)c1C)C1CCOCC1 [Tazemetostat] | > 10000 | – | > 10000 | –
O=c1ncn2nc(Sc3ccc(F)cc3F)ccc2c1-c1c(Cl)cccc1Cl [VX 745] | > 10000 | – | 778 | –
CN1CC[C@@H](NC(=O)Nc2ccc(C#N)cc2)C[C@@H]1c1nc2ccccc2[nH]1 [Glasdegib] | > 1000 | – | > 1000 | –
N#CC1(c2ccc(NC(=O)c3cccnc3NCc3ccncc3)cc2)CCCC1 [Apatinib] | > 10000 | > 10000 | – | –
Cc1cc(-c2ncc(-c3cccnc3)cc2/C=C/c2ccccc2)cnc1-c1cccnc1 [Pyridoclax] | > 25000 | – | 672 | –
O=C(Nc1cccc(C(F)(F)F)c1)Nc1cc(S(=O)(=O)NC2CC2)ccc1-c1ccsc1 [AGI-6780] | > 10000 | 1400 | – | –
COc1cc(C(=O)NC2CCN(C)CC2)c(F)cc1Nc1ncc2c(n1)N(C1CCCC1)CC(F)(F)C(=O)N2C [TAK-960] | > 2500 | – | > 2500 | –
CNc1nc(Nc2cn(C(C)(C)C#N)nc2C)ncc1C(F)(F)F [GNE-0877] | > 1000 | > 1000 | > 1000 | –
CC[C@H](NC(=O)[C@H](C)NC)C(=O)N1C[C@@H](O)C[C@H]1Cc1c(-c2[nH]c3cc(F)ccc3c2C[C@@H]2C[C@H](O)CN2C(=O)[C@H](CC)NC(=O)[C@H](C)NC)[nH]c2cc(F)ccc12 [Birinapant] | > 1000 | > 1000 | > 1000 | –
COc1ccc(Cn2ccc3ccc(C(=O)NO)cc32)cc1 | > 10000 | 3750 | 1600 | –
O=C(NOCC1CC1)c1ccc(F)c(F)c1Nc1ccc(I)cc1Cl | > 10000 | 1630 | – | –
Cc1ncc(Cl)cc1NCc1ccc(C(=O)N[C@@H](CC2CCCC2)C(=O)NC2CC2)s1 | > 5000 | – | 103 | –
CC(C)[C@@H](CS(=O)(=O)C(C)C)N1C(=O)[C@@](C)(CC(=O)O)C[C@H](c2cccc(Cl)c2)[C@H]1c1ccc(Cl)cc1 [AMG-232] | > 1000 | > 1000 | 190 | –
COc1ccc2c(OCc3nnc4ccc(-c5ccccc5)nn34)ccnc2c1 [AMG-208] | > 2500 | > 2500 | > 2500 | –
CCN1CCN(Cc2ccc(Nc3ncc(F)c(-c4cc(F)c5nc(C)n(C(C)C)c5c4)n3)nc2)CC1 [Abemaciclib] | > 2500 | 1010 | 27.5 | –
O=C(Nc1ccc(OC(F)(F)F)cc1)c1sccc1NCc1ccnc2ccccc12 [OSI-930] | > 2500 | – | > 2500 | –
